Counter-ions that a name gives are not always drawn. Like-named read-outs stand apart in the source and are kept apart here.
Tests used:
[1] = system: human colorectal cancer cell line (GP2D); assay: Anti-tumor efficacy in mouse transplanted tumor model of human colorectal cancer cell line (GP2D); format: in vivo, mice (BALB/c nude); details: PO*BID
Text: 8-10 week old female conventional immunodeficient mice (BALB/c nude) with a body weight of 18 g-22 g were used as experimental animals, and a transplanted tumor model of human colorectal cancer cell line (GP2D) was used to conduct in vivo efficacy experiments to test the anti-tumor results of the example compounds after gavage administration.
The example compounds of the present invention, made in house.
A certain amount of the example compound was weighed, and an appropriate amount of 10% vehicle (Solutol HS15) was added. The mixture was stirred on a magnetic stirrer for 0.5 h to formulate a homogeneous suspension at the desired concentration.
The human colorectal cancer cell line (GP2D) was derived from COBIOER BIOSCIENCES CO., LTD, cultured on DMEM medium (Gibco, 11995-065) supplemented with 10% fetal calf serum (Gibco, 10091-148) and 1% penicillin/streptomycin (Gibco, 15140-122) and observed under a microscope (Thermo Fisher, 311). The cells were routinely passaged when the cells reached 80%-90% confluence in the culture flask. The passaged cells were cultured in a 37°C, 5% CO2 incubator (Thermo Fisher, 311).
Under aseptic conditions, human colorectal cancer cells (GP2D) in the logarithmic growth phase were harvested using 0.25% trypsin-EDTA (Gibco, 25200-056), washed and resuspended with phosphate buffer. The cell suspension was mixed with Matrigel (Corning, 356234) at a 1 : 1 ratio (v/v) and implanted subcutaneously into the right anterior dorsal region of immunodeficient mice (BALB/c nude). Each mouse was inoculated with 5*10^6 cells in a volume of 100 microliters (µL). After inoculation, when the tumor volume reached 100-200 mm^3, the mice would be evenly randomized into 5 groups based on the tumor size, with 5 mice per group, for in vivo efficacy experiments. The positive control group was the compound MRTX-1133, and the negative control group was the vehicle group.
Mode of administration: The positive control group was intraperitoneally injected, and the example compounds were administered orally.
Twice a week, the long and short diameters of the tumor were measured using a vernier caliper, and the tumor volume (mm^3) was calculated using the formula: V = 0.5*D*d*d, where D and d are the long and short diameters of the tumor, respectively. The anti-tumor efficacy was determined by dividing the average increase in tumor volume of compound-treated animals by the average increase in tumor volume of untreated animals. The calculation formula for tumor inhibition rate was: When there is no tumor regression, TGI(%) = 100-[(Vt-V0) administration group/(Vt-V0) vehicle control group]*100%. When tumor regression occurs, TGI(%) = [1-(V1-V0) administration group/V0 vehicle control group]* 100%. All animals were euthanized after the experiment.

[2] = Pharmacokinetic determination in rats (IV and PO, plasma, LCMS/MS); format: in vivo, SD rats
Outline: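 Male SD rats (3/group), fasted overnight, dosed PO at 30 mg/kg in 10% Captisol/50 mM citrate pH 5.0 or IV at 1 mg/kg in 5% DMSO/10% Solutol HS15/85% PBS. Jugular plasma (EDTA-2K) sampled predose to 24 h; analysed by LCMS/MS.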

[3] = system: human colorectal cancer cell line (GP2D); assay: Anti-tumor efficacy in mouse transplanted tumor model of human colorectal cancer cell line (GP2D); format: in vivo, mice (BALB/c nude); details: 30mpk, PO*BID, Day 14
[4] = IV, 1 mg/kg, male SD rats, overnight fasting, plasma
[5] = PO 30 mg/kg vs IV 1 mg/kg, male SD rats
[6] = PO, 30 mg/kg, male SD rats, overnight fasting, plasma
[7] = rat, in vivo, IV, 1 mg/kg, male SD rats, overnight fasting, plasma, read-out: AUCo-∞
[8] = rat, in vivo, IV, 1 mg/kg, male SD rats, overnight fasting, plasma, read-out: C0
[9] = rat, in vivo, IV, 1 mg/kg, male SD rats, overnight fasting, plasma, read-out: CL
[10] = rat, in vivo, IV, 1 mg/kg, male SD rats, overnight fasting, plasma, read-out: T1/2 (converted)
[11] = rat, in vivo, PO, 30 mg/kg, male SD rats, overnight fasting, plasma, read-out: AUCo-∞
[12] = rat, in vivo, PO, 30 mg/kg, male SD rats, overnight fasting, plasma, read-out: Cmax
[13] = rat, in vivo, PO, 30 mg/kg, male SD rats, overnight fasting, plasma, read-out: T1/2 (converted)
[14] = rat, in vivo, PO, 30 mg/kg, male SD rats, overnight fasting, plasma, read-out: Tmax

Compound | Tumor volume (mm^3, Mean ± SD) Day 0 ([1]; 30mpk) [mm^3] | TGI(%) Day 14 ([1]; 30mpk) [%] | ΔT/ΔC(%) Day 14 ([1]; 30mpk) [%] | Tumor volume (mm^3, Mean ± SD) Day 0 ([1]; 100mpk) [mm^3] | TGI(%) Day 14 ([1]; 100mpk) [%] | Tumor volume (mm^3, Mean ± SD) Day 14 ([1]; 100mpk) [mm^3] | ΔT/ΔC(%) Day 14 ([1]; 100mpk) [%] | F [2, 5] [%] | Tumor volume (mm^3, Mean ± SD) Day 14 [3] [mm^3] | AUC(0-inf) [2, 7] [ng·h/mL] | C0 [2, 8] [ng/mL] | clearance [2, 9] [mL/min/kg] | half-life [2, 10] [h] | AUC(0-inf) [2, 11] [ng·h/mL] | Cmax [2, 12] [ng/mL] | half-life [2, 13] [h] | Tmax [2, 14] [h] | further results
4-((5S,5aS,6R,9S)-12-((1-((((R)-4-(difluoromethylene)-2-methylpiperidin-1-yl)methyl)cyclopropyl)methoxy)-1-fluoro-5-(methyl-d3)-5a,6,7,8,9,10-hexahydro-5H-4-oxa-3,10a,11,13,14-pentaaza-6,9-methylnaphtho[1,8-ab]hept-2-yl)-5-ethynyl-6-fluoronaphthalen-2-ol [Example 162] | 167 | 122.15 | 16.47 | 167 | 133.67 | 111 | 14.04 | 10.3 | 130 |  |  |  |  |  |  |  |  | AUCo-∞ [2, 4]: 514 ng·h/mL; C0 [2, 4]: 438 ng/mL; CL [2, 4]: 32.4 mL/min/kg; T1/2 [2, 4]: 10.8 h; AUCo-∞ [2, 6]: 1591 ng·h/mL; Cmax [2, 6]: 89 ng/mL; T1/2 [2, 6]: 10.5 h; Tmax [2, 6]: 4.0 h
C#Cc1c(F)ccc2cc(O)cc(-c3nc4c5c(nc(OCC6(CN7CCC(=C(F)F)CC7)CC6)nc5c3F)N3C[C@H]5CC[C@H](N5)[C@H]3CO4)c12 [Example 1-1, 4-((5aS,6S,9R)-12-((1-((4-(difluoromethylene)piperidin-1-yl)methyl)cyclopropyl)methoxy)-1-fluoro-5a,6,7,8,9,10-hexahydro-5H-4-oxa-3,10a,11,13,14-pentaaza-6,9-methylenenaphtho[1,8-ab]heptalene-2-yl)-5-ethynyl-6-fluoronaphthalen-2-ol] |  |  |  |  |  |  |  | 2.1 |  | 2960 | 1770 | 5.6 | 16.3 | 1890 | 254 | 5.1 | 6 | 
C#Cc1c(F)ccc2cc(O)cc(-c3nc4c5c(nc(OCC6(CN7CCC(=C(F)F)CC7)CC6)nc5c3F)N3C[C@H]5CC[C@H](N5)[C@H]3[C@H](C)O4)c12 [Example 19-1, 4-((5S,5aS,6S,9R)-12-((1-((4-(difluoromethylene)piperidin-1-yl)methyl)cyclopropyl)methoxy)-1-fluoro-5-methyl-5a,6,7,8,9,10-hexahydro-5H-4-oxa-3,10a,11,13,14-pentaaza-6,9-methylnaphtho[1,8-ab]hept-2-yl)-5-ethynyl-6-fluoronaphthalene-2-ol] |  |  |  |  |  |  |  | 5.4 |  | 1900 | 1720 | 8.8 | 10.1 | 3080 | 329 | 8.2 | 2 | 
C#Cc1c(F)ccc2cc(O)cc(-c3nc4c5c(nc(OCC6(CN7CCC(=NOC)CC7)CC6)nc5c3F)N3C[C@H]5CC[C@H](N5)[C@H]3[C@H](C)O4)c12 [Example 35-1, 1-((1-((((5S,5aS,6S,9R)-2-(8-ethynyl-7-fluoro-3-hydroxynaphthalen-1-yl)-1-fluoro-5-methyl-5a,6,7,8,9,10-hexahydro-5H-4-oxa-3,10a,11,13,14-pentaaza-6,9-methylenenaphtho[1,8-ab]heptalen-12-yl)oxo)methyl)cyclopropyl)methyl)piperidin-4-one O-methyloxime formate] |  |  |  |  |  |  |  | 3.5 |  | 571 | 2810 | 29.2 | 5.7 | 601 | 108 | 3.4 | 2 | 
C#Cc1c(F)ccc2cc(O)cc(-c3nc4c5c(nc(OCC6(CN7CCC(=CF)CC7)CC6)nc5c3F)N3C[C@H]5CC[C@H](N5)[C@H]3[C@H](C)O4)c12 [Example 129, 5-ethynyl-6-fluoro-4-((5S,5aS,6S,9R)-1-fluoro-12-((1-((4-(fluoromethylene)piperidin-1-yl)methyl)cyclopropyl)methoxy)-5-methyl-5a,6,7,8,9,10-hexahydro-5H-4-oxa-3,10a,11,13,14-pentaaza-6,9-methylnaphtho[1,8-ab]hept-2-yl)naphthalen-2-ol] | 167 | 133.12 | 14.15 | 167 | 153.01 | 79 | 9.94 | 5.4 | 112 | 578 | 2120 | 28.8 | 11.7 | 938 | 103 | 9.6 | 1 | 
[2H]C([2H])([2H])[C@@H]1Oc2nc(-c3cc(O)cc4ccc(F)c(C#C)c34)c(F)c3nc(OCC4(CN5CCC(=C(F)F)CC5)CC4)nc(c23)N2C[C@H]3CC[C@H](N3)[C@@H]12 [Example 161, 4-((5S,5aS,6S,9R)-12-((1-((4-(difluoromethylene)piperidin-1-yl)methyl)cyclopropyl)methoxy)-1-fluoro-5-(methyl-d3)-5a,6,7,8,9,10-hexahydro-5H-4-oxa-3,10a,11,13,14-pentaaza-6,9-methylnaphtho[1,8-ab]hept-2-yl)-5-ethynyl-6-fluoronaphthalen-2-ol] | 167 | 134.18 | 13.93 | 167 | 153.75 | 77 | 9.79 |  | 110 |  |  |  |  |  |  |  |  | F ([2]; rat, in vivo): 7%; AUC(0-inf) ([2]; rat, in vivo, iv, 1 mg/kg): 1420 ng·h/mL; C0 ([2]; rat, in vivo, iv, 1 mg/kg): 704 ng/mL; clearance ([2]; rat, in vivo, iv, 1 mg/kg): 11.7 mL/min/kg; half-life ([2]; rat, in vivo, iv, 1 mg/kg): 8.4 h; AUC(0-inf) ([2]; rat, in vivo, po, 30 mg/kg): 2890 ng·h/mL; Cmax ([2]; rat, in vivo, po, 30 mg/kg): 254 ng/mL; Tmax ([2]; rat, in vivo, po, 30 mg/kg): 6 h; half-life ([2]; rat, in vivo, po, 30 mg/kg): 6.9 h
[2H]C([2H])([2H])[C@@H]1Oc2nc(-c3cc(O)cc4ccc(F)c(C#C)c34)c(F)c3nc(OCC4(CN5CCC(=CF)CC5)CC4)nc(c23)N2C[C@H]3CC[C@H](N3)[C@@H]12 [Example 164] |  |  |  |  |  |  |  |  |  | 774 | 838 | 21.5 | 17.6 | 1580 | 135 | 14 | 2 | 
CON=C1CCN(CC2(COc3nc4c5c(nc(-c6cc(N)cc(Cl)c6C(F)(F)F)c(F)c5n3)O[C@@H](C)[C@@H]3[C@@H]5CC[C@H](CN43)N5)CC2)CC1 [Example 337, 1-((1-((((5S,5aS,6S,9R)-2-(5-amino-3-chloro-2-(trifluoromethyl)phenyl)-1-fluoro-5-methyl-5a,6,7,8,9,10-hexahydro-5H-4-oxa-3,10a,11,13,14-pentaaza-6,9-methylnaphtho[1,8-ab]heptene-12-yl)oxy)methyl)cyclopropyl)methyl)piperidin-4-one O-methyloxime] |  |  |  |  |  |  |  |  |  |  |  |  |  | 374 | 41 | 4.2 | 4 | 
[2H]C([2H])([2H])[C@@H]1Oc2nc(-c3cc(N)cc(Cl)c3C(F)(F)F)c(F)c3nc(OCC4(CN5CCC(=NOC)CC5)CC4)nc(c23)N2C[C@H]3CC[C@H](N3)[C@@H]12 [Example 339] |  |  |  |  |  |  |  | 6.6 |  | 98 | 174 | 170 | 2.6 | 220 | 43 | 3 | 2 | 
